Test results published in patent US6737383B1, “Herbicidal oxadiazolidines” (priority 1999, dated 2004).

Key:
cocklebur = experiment: Test B pre/postemergence cocklebur; type: in vivo, Xanthium strumarium
Method in brief: (§1)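 Test chemicals in a non-phytotoxic solvent mixture with surfactant were sprayed preemergence onto planted seeds and postemergence onto plants 2 to 18 cm tall (1- to 4-leaf stage). After twelve to sixteen days in a greenhouse, injury was visually rated against untreated controls from 0 (no effect) to 10 (complete control).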

soybean = experiment: Test B pre/postemergence soybean; type: in vivo, Glycine max
Method in brief: as §1

surinam grass = experiment: Test B pre/postemergence surinam grass; type: in vivo, Brachiaria decumbens
Method in brief: as §1

smallflower flatsedge = experiment: Test B flood test smallflower flatsedge; type: in vivo, Cyperus difformis
Method in brief: (§2)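 Read-out is a visual response score from 0 (no effect) to 10 (complete control), assigned by comparison with untreated controls. Treatment was applied at the 2-leaf stage, and plants stayed in the greenhouse for twelve to sixteen days before scoring.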

blackgrass = experiment: Test B pre/postemergence blackgrass; type: in vivo, Alopecurus myosuroides
Method in brief: as §1

wheat = experiment: Test B pre/postemergence wheat; type: in vivo, Triticum aestivum
Method in brief: as §1

purple nutsedge = experiment: Test B pre/postemergence purple nutsedge; type: in vivo, Cyperus rotundus
Method in brief: as §1

duck salad = experiment: Test B flood test duck salad; type: in vivo, Heteranthera limosa
Method in brief: as §2

rape = experiment: Test B pre/postemergence rape; type: in vivo, Brassica napus
Method in brief: as §1

corn = experiment: Test B pre/postemergence corn; type: in vivo, Zea mays
Method in brief: as §1

sugar beet = experiment: Test B pre/postemergence sugar beet; type: in vivo, Beta vulgaris
Method in brief: as §1

crabgrass = experiment: Test B pre/postemergence crabgrass; type: in vivo, Digitaria sanguinalis
Method in brief: as §1

wild oat = experiment: Test B pre/postemergence wild oat; type: in vivo, Avena fatua
Method in brief: as §1

morningglory = experiment: Test B pre/postemergence morningglory; type: in vivo, Ipomoea hederacea
Method in brief: as §1

velvetleaf = experiment: Test B pre/postemergence velvetleaf; type: in vivo, Abutilon theophrasti
Method in brief: as §1

giant foxtail = experiment: Test B pre/postemergence giant foxtail; type: in vivo, Setaria faberii
Method in brief: as §1

[1] = Postemergence, Rate 62 g/ha, scale 0 to 10, 0 is no effect, 10 is complete control
[2] = Postemergence, Rate 125 g/ha, scale of 0 to 10 where 0 is no effect and 10 is complete control
[3] = Postemergence, Rate 250 g/ha, scale of 0 to 10, 0 is no effect, 10 is complete control
[4] = Postemergence, Rate 500 g/ha, scale of 0 to 10 where 0 is no effect and 10 is complete control
[5] = Preemergence, Rate 62 g/ha, scale 0 to 10 (0 no effect, 10 complete control)
[6] = Preemergence, Rate 125 g/ha, scale of 0 to 10 where 0 is no effect and 10 is complete control
[7] = Preemergence, Rate 500 g/ha, scale of 0 to 10 where 0 is no effect and 10 is complete control
[8] = Preemergence, Rate 250 g/ha, scale 0 to 10 (0 no effect, 10 complete control)
[9] = Rate 62 g/ha, flood test species, Pre-emergence, visual evaluation after twelve to sixteen days
[10] = Rate 125 g/ha, under heading Pre-emergence, flood test species, visual evaluation after twelve to sixteen days
[11] = Rate 250 g/ha, Pre-emergence (flood test species), scale 0 to 10, 0 is no effect, 10 is complete control
[12] = Rate 500 g/ha, Pre-emergence section of Table B, 0 to 10 scale (0 no effect, 10 complete control)

## CCOC(Cn1c(=O)on(C(=O)N(c2ccc(F)cc2F)C(C)C)c1=O)OCC [Compound 630]
cocklebur; [1]
  Plant response rating, Cocklebur: 0
cocklebur; [2]
  Plant response rating, Cocklebur: 0
cocklebur; [3]
  Cocklebur plant response rating: 0
cocklebur; [4]
  Plant response rating, Cocklebur: 0
cocklebur; [5]
  Cocklebur plant response rating: 0
cocklebur; [6]
  Cocklebur plant response rating: 0
cocklebur; [7]
  Plant response rating, Cocklebur: 0
soybean; [1]
  Plant response rating, Soybean: 4
soybean; [3]
  Soybean plant response rating: 5
soybean; [5]
  Soybean plant response rating: 0
soybean; [6]
  Soybean plant response rating: 0
soybean; [8]
  Plant response rating, Soybean: 0
soybean; [7]
  Plant response rating, Soybean: 3
Surinam grass; [1]
  Plant response rating, B. signalgrass: 0
Surinam grass; [2]
  Plant response rating, B. signalgrass: 0
Surinam grass; [3]
  B. signalgrass plant response rating: 1
Surinam grass; [4]
  Plant response rating, B. signalgrass: 3
Surinam grass; [5]
  B. signalgrass plant response rating: 0
Surinam grass; [6]
  B. signalgrass plant response rating: 3
Surinam grass; [8]
  Plant response rating, B. signalgrass: 7
Surinam grass; [7]
  Plant response rating, B. signalgrass: 8
Smallflower flatsedge; [9]
  Plant response rating, S. Flatsedge (0 to 10 scale, 0 is no effect, 10 is complete control): 0
Smallflower flatsedge; [10]
  S. Flatsedge plant response rating (0 to 10 scale, 0 is no effect, 10 is complete control): 0
Smallflower flatsedge; [11]
  S. Flatsedge plant response rating: 0
Smallflower flatsedge; [12]
  S. Flatsedge plant response rating: 0
blackgrass; [1]
  Plant response rating, Blackgrass: 0
blackgrass; [2]
  Plant response rating, Blackgrass: 0
blackgrass; [3]
  Blackgrass plant response rating: 3
blackgrass; [4]
  Plant response rating, Blackgrass: 9
blackgrass; [5]
  Blackgrass plant response rating: 5
blackgrass; [6]
  Blackgrass plant response rating: 8
blackgrass; [8]
  Plant response rating, Blackgrass: 8
blackgrass; [7]
  Plant response rating, Blackgrass: 10
wheat; [1]
  Plant response rating, Wheat: 0
wheat; [2]
  Plant response rating, Wheat: 0
wheat; [3]
  Wheat plant response rating: 0
wheat; [5]
  Wheat plant response rating: 0
wheat; [6]
  Wheat plant response rating: 0
wheat; [8]
  Plant response rating, Wheat: 3
wheat; [7]
  Plant response rating, Wheat: 8
Purple nutsedge; [1]
  Plant response rating, Nutsedge: 0
Purple nutsedge; [2]
  Plant response rating, Nutsedge: 0
Purple nutsedge; [4]
  Plant response rating, Nutsedge: 0
Purple nutsedge; [5]
  Nutsedge plant response rating: 0
Purple nutsedge; [6]
  Nutsedge plant response rating: 0
Purple nutsedge; [8]
  Plant response rating, Nutsedge: 0
Purple nutsedge; [7]
  Plant response rating, Nutsedge: 3
Duck salad; [9]
  Plant response rating, Ducksalad (0 to 10 scale, 0 is no effect, 10 is complete control): 0
Duck salad; [10]
  Ducksalad plant response rating (0 to 10 scale, 0 is no effect, 10 is complete control): 0
Duck salad; [11]
  Ducksalad plant response rating: 0
Duck salad; [12]
  Ducksalad plant response rating: 0
rape; [1]
  Plant response rating, Rape: 0
rape; [2]
  Plant response rating, Rape: 0
rape; [3]
  Rape plant response rating: 0
rape; [4]
  Plant response rating, Rape: 4
rape; [5]
  Rape plant response rating: 0
rape; [6]
  Rape plant response rating: 0
rape; [8]
  Plant response rating, Rape: 0
rape; [7]
  Plant response rating, Rape: 0
corn; [1]
  Plant response rating, Corn: 0
corn; [2]
  Plant response rating, Corn: 0
corn; [3]
  Corn plant response rating: 2
corn; [4]
  Plant response rating, Corn: 5
corn; [5]
  Corn plant response rating: 0
corn; [6]
  Corn plant response rating: 0
corn; [8]
  Plant response rating, Corn: 3
corn; [7]
  Plant response rating, Corn: 5
Sugar beet; [1]
  Plant response rating, Sugarbeets: 0
Sugar beet; [2]
  Plant response rating, Sugarbeets: 0
Sugar beet; [3]
  Sugarbeets plant response rating: 0
Sugar beet; [5]
  Sugarbeets plant response rating: 0
Sugar beet; [6]
  Sugarbeets plant response rating: 4
Sugar beet; [8]
  Plant response rating, Sugarbeets: 4
Sugar beet; [7]
  Plant response rating, Sugarbeets: 7
crabgrass; [1]
  Plant response rating, Crabgrass: 1
crabgrass; [2]
  Plant response rating, Crabgrass: 5
crabgrass; [3]
  Crabgrass plant response rating: 8
crabgrass; [5]
  Crabgrass plant response rating: 7
crabgrass; [6]
  Crabgrass plant response rating: 8
crabgrass; [8]
  Plant response rating, Crabgrass: 9
crabgrass; [7]
  Plant response rating, Crabgrass: 9
Wild oat; [1]
  Plant response rating, Wild oats: 0
Wild oat; [2]
  Plant response rating, Wild oats: 0
Wild oat; [3]
  Wild oats plant response rating: 0
Wild oat; [5]
  Wild oats plant response rating: 0
Wild oat; [6]
  Wild oats plant response rating: 3
Wild oat; [8]
  Plant response rating, Wild oats: 8
Wild oat; [7]
  Plant response rating, Wild oats: 8
morningglory; [1]
  Plant response rating, Morningglory: 1
morningglory; [2]
  Plant response rating, Morningglory: 2
morningglory; [3]
  Morningglory plant response rating: 2
morningglory; [4]
  Plant response rating, Morningglory: 4
morningglory; [5]
  Morningglory plant response rating: 0
morningglory; [6]
  Morningglory plant response rating: 0
morningglory; [8]
  Plant response rating, Morningglory: 0
morningglory; [7]
  Plant response rating, Morningglory: 2
velvetleaf; [1]
  Plant response rating, Velvetleaf: 0
velvetleaf; [2]
  Plant response rating, Velvetleaf: 4
velvetleaf; [3]
  Velvetleaf plant response rating: 4
velvetleaf; [5]
  Velvetleaf plant response rating: 0
velvetleaf; [6]
  Velvetleaf plant response rating: 1
velvetleaf; [8]
  Plant response rating, Velvetleaf: 6
velvetleaf; [7]
  Plant response rating, Velvetleaf: 7
Giant foxtail; [1]
  Plant response rating, Giant foxtail: 2
Giant foxtail; [2]
  Plant response rating, Giant foxtail: 7
Giant foxtail; [3]
  Giant foxtail plant response rating: 8
Giant foxtail; [4]
  Plant response rating, Giant foxtail: 9
Giant foxtail; [5]
  Giant foxtail plant response rating: 9
Giant foxtail; [6]
  Giant foxtail plant response rating: 10
Giant foxtail; [8]
  Plant response rating, Giant foxtail: 10
Giant foxtail; [7]
  Plant response rating, Giant foxtail: 10
